According to publication PMC9516243, “Design of stapled peptide-based PROTACs for MDM2/MDMX atypical degradation and tumor suppression” (Theranostics, 2022):
“And” between values parts separate entries of the source, which are not always exact repeats. Equal entries are not always repeated. Where two headings read alike, the source gives them in different places. Positions of bridges follow the written chain, without caps; N, C: chain ends. Non-standard residues stand in square brackets, D forms with d. Residues, ends and D or L forms follow the SMILES beside them. Hyp = O=C(O)[C@@H]1C[C@@H](O)CN1; R8 = C=CCCCCCC[C@@](C)(N)C(=O)O; hLeu = CC(C)CC[C@H](N)C(=O)O; S5 = C=CCCC[C@](C)(N)C(=O)O; PEG3 = NCCOCCOCCOCCC(=O)O; PEG2 = NCCOCCOCCC(=O)O; AEA = NCCOCC(=O)O

Tests used:
circular dichroism = conditions: phosphate buffer (PB); pH 7.2; 20 °C; 10-50 uM
[1] = α-Helicity by CD spectroscopy; format: physicochemical; conditions: PB pH 7.2, 10-50 µM peptide, 20°C, calculated from [θ]222
Protocol: Peptides were dissolved in PB (pH = 7.2) to concentrations ranging from 10 to 50 µM. CD spectra were obtained on a Jasco J-715 spectropolarimeter at 20°C. The spectra were collected using a 0.1 cm path length quartz cuvette with the following measurement parameters: wavelength, 185-255 nm; step resolution, 0.1 nm; speed, 20 nm/min; accumulations, 6; bandwidth, 1 nm. The helical content of each peptide was calculated as reported previously.

HCT116 p53^+/+ cells = assay: Cell viability assay (CCK-8); format: cell-based, human
Protocol: (§1) The human colon carcinoma cell line HCT116 p53^+/+ was obtained from the Cell Bank of the Chinese Academy of Sciences (Shanghai, China). HCT116 p53^-/- cells were generously provided by Prof. Vogelstein of Johns Hopkins University. Both cell lines were cultured in McCoy's 5A medium (Gibco, USA) containing 10% FBS, 100 units/ml penicillin, and 100 μg/ml streptomycin at 37 °C in a humidified incubator containing 5% CO2. Cell viability was measured using a Cell Counting Kit-8 (CCK-8) (Dojindo, Kumamoto, Japan) according to the manufacturer's instructions. In brief, the cells (5 × 10^3 cells/well in […] medium) were cultured for 24 h in 96-well microplates in a humidified 5% CO2 incubator at 37 °C and then treated with varying concentrations of compounds or 0.1% DMSO vehicle control.

HCT116 p53^-/- cells = assay: Cell viability assay (CCK-8); format: cell-based, human
Protocol: as §1

Pharmacokinetic study = format: in vivo; conditions: mouse, iv, male ICR mice, 1.8 mg/kg single i.v. tail vein, plasma, UPLC-ESI-QqQ-MS, n = 5
Protocol: The peptides (1.8 mg/kg) were individually dosed in mice intravenously via tail vein injection and the blood samples were collected from the orbital venous plexus at 0, 0.5, 1, 2, 4, 6, 10, 24, and 48 h. All blood samples were centrifuged at 3000 rpm for 10 min, and the obtained plasma samples were immediately frozen at -80 °C until use. The standard curve was established as follows: Stock solutions of PMI-HIF1-1 and SPMI-HIF2-1 dissolved in acetonitrile were spiked into control plasma at final concentrations of 4000, 2000, 1000, 500, 250, 125, 62.5, 31.25, 15.625, 7.8125, 3.90625, 1.953125, and 0.9765625 ng/ml. […] Plasma samples (30 μL) were treated with 90 μL acetonitrile for protein precipitation. Then all samples were vortexed for 2 min and centrifuged for 15 min at 13000 rpm and 4°C. The supernatants were analyzed by ultraperformance liquid chromatography-electrospray ionization-tandem triple quadrupole mass spectrometry (UPLC-ESI-QqQ-MS, Shimadzu 8040). The system was equipped with an XBridge BEH C18 column (2.5 μm, 2.1×100 mm; Waters, Milford, MA, USA). The column temperature was set at 35°C. The injection volume was 4 μl. […] The plasma concentration at each time point was calculated from the extracted peak area of the same mass peaks of each peptide using the corresponding standard curve.

^24-108MDMX = target: T1, ^24-108MDMX (Homo sapiens, UniProt O15151); assay: FP-based competitive binding assay; conditions: MDMX 40 nM, fluorescently tagged p53 peptide 20 nM, PBS pH 7.4, 30 min room temperature; mean of three independent measurements
T1 construct: ^24-108MDMX, and a fluorescently tagged p53-derived peptide
T1 sequence (O15151 24-108): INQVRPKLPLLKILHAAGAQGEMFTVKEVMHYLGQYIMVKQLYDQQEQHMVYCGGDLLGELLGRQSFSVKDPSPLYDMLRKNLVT
Protocol: An FP-based competitive or binding assay was established using ^25-109MDM2, ^24-108MDMX, and a fluorescently tagged p53-derived peptide as previously described. [34]-[36] For dose-dependent competitive binding experiments, MDM2 or MDMX protein (40 nM) was first incubated with TAMRA-p53 peptide (20 nM) in PBS (pH 7.4) on a Costar 96-well plate, to which a serially diluted solution of test peptide was added to a final volume of 125 μL. After 30 min of incubation at room temperature, the FP values were measured at λex = 530 nm and λem = 580 nm on a Tecan Infinite M1000 plate reader. For binding experiments, FITC-labeled SPMI-HIF2-1 (20 nM) was incubated with different concentrations of MDM2, MDMX, and VHL proteins. Curve fitting was performed using GraphPad Prism software, and Ki values were calculated as described previously. Three replicates and three independent experiments were performed.

α-helicity (%) [1]	IC50 (HCT116 p53^+/+ cells; 72 h)	IC50 (HCT116 p53^-/- cells; 72 h)	Compound	helicity (circular dichroism)	Cmax (Pharmacokinetic study; mean)	AUC(0-inf) (Pharmacokinetic study)	MRT (Pharmacokinetic study)	half-life (Pharmacokinetic study; read-out: half-life (t1/2) (converted))	Ki (^24-108MDMX)	IC50 (HCT116 p53^+/+ cells; CCK-8, 72 h incubation, absorbance 450 nm, read-out: IC50 (μM) HCT116 p53^+/+)	IC50 (HCT116 p53^-/- cells; CCK-8, 72 h incubation, absorbance 450 nm, read-out: IC50 (μM) HCT116 p53^-/-)
17%			CC(=O)N[C@H](C(=O)N[C@@H](CO)C(=O)N[C@@H](Cc1ccccc1)C(=O)N[C@@H](C)C(=O)N[C@@H](CCC(=O)O)C(=O)N[C@@H](Cc1ccc(O)cc1)C(=O)N[C@@H](Cc1c[nH]c2ccccc12)C(=O)N[C@@H](C)C(=O)N[C@@H](CC(C)C)C(=O)N[C@@H](CC(C)C)C(=O)N[C@@H](CO)C(=O)NCCOCCOCCC(=O)N[C@@H](CC(C)C)C(=O)N[C@@H](C)C(=O)N1C[C@H](O)C[C@H]1C(=O)N[C@@H](Cc1ccc(O)cc1)C(=O)N[C@@H](CCC(C)C)C(=O)N1CCC[C@H]1C(N)=O)[C@@H](C)O [PMI-HIF1-2]	17%							
17%			CC(=O)N[C@H](C(=O)N[C@@H](CO)C(=O)N[C@@H](Cc1ccccc1)C(=O)N[C@@H](C)C(=O)N[C@@H](CCC(=O)O)C(=O)N[C@@H](Cc1ccc(O)cc1)C(=O)N[C@@H](Cc1c[nH]c2ccccc12)C(=O)N[C@@H](C)C(=O)N[C@@H](CC(C)C)C(=O)N[C@@H](CC(C)C)C(=O)N[C@@H](CO)C(=O)NCCOCCOCCOCCC(=O)N[C@@H](CC(C)C)C(=O)N[C@@H](C)C(=O)N1C[C@H](O)C[C@H]1C(=O)N[C@@H](Cc1ccc(O)cc1)C(=O)N[C@@H](CCC(C)C)C(=O)N1CCC[C@H]1C(N)=O)[C@@H](C)O [PMI-HIF1-3]	17%							
4%	> 100 µM	> 100 µM	CC(=O)N[C@H](C(=O)N[C@@H](CO)C(=O)N[C@@H](Cc1ccccc1)C(=O)N[C@@]1(C)CCCC=CCCC[C@@](C)(C(=O)N[C@@H](CC(C)C)C(=O)N[C@@H](CC(C)C)C(=O)N[C@@H](CO)C(N)=O)NC(=O)[C@H](Cc2c[nH]c3ccccc23)NC(=O)[C@H](Cc2ccc(O)cc2)NC(=O)[C@H](CCC(=O)O)NC1=O)[C@@H](C)O [SPMI1] (Ac-TSF[S5]EYW[S5]LLS-NH2; staple 4-8)	4%							
3%	82.1 µM	> 100 µM	CC(=O)N[C@H](C(=O)N[C@@H](CO)C(=O)N[C@@H](Cc1ccccc1)C(=O)N[C@@]1(C)CCCC=CCCC[C@@](C)(C(=O)N[C@@H](CC(C)C)C(=O)N[C@@H](CC(C)C)C(=O)N[C@@H](CO)C(=O)NCCOCC(=O)N[C@@H](CC(C)C)C(=O)N[C@@H](C)C(=O)N2C[C@H](O)C[C@H]2C(=O)N[C@@H](Cc2ccc(O)cc2)C(=O)N[C@@H](CCC(C)C)C(=O)N2CCC[C@H]2C(N)=O)NC(=O)[C@H](Cc2c[nH]c3ccccc23)NC(=O)[C@H](Cc2ccc(O)cc2)NC(=O)[C@H](CCC(=O)O)NC1=O)[C@@H](C)O [SPMI-HIF1-1] (Ac-TSF[S5]EYW[S5]LLS[AEA]LA[Hyp]Y[hLeu]P-NH2; staple 4-8)	3%							
2%	85.1 µM	> 100 µM	CC(=O)N[C@H](C(=O)N[C@@H](CO)C(=O)N[C@@H](Cc1ccccc1)C(=O)N[C@@]1(C)CCCC=CCCC[C@@](C)(C(=O)N[C@@H](CC(C)C)C(=O)N[C@@H](CC(C)C)C(=O)N[C@@H](CO)C(=O)NCCOCCOCCC(=O)N[C@@H](CC(C)C)C(=O)N[C@@H](C)C(=O)N2C[C@H](O)C[C@H]2C(=O)N[C@@H](Cc2ccc(O)cc2)C(=O)N[C@@H](CCC(C)C)C(=O)N2CCC[C@H]2C(N)=O)NC(=O)[C@H](Cc2c[nH]c3ccccc23)NC(=O)[C@H](Cc2ccc(O)cc2)NC(=O)[C@H](CCC(=O)O)NC1=O)[C@@H](C)O [SPMI-HIF1-2] (Ac-TSF[S5]EYW[S5]LLS[PEG2]LA[Hyp]Y[hLeu]P-NH2; staple 4-8)	2%							
27%	57.7 µM	> 100 µM	CC(=O)N[C@H](C(=O)N[C@@H](CO)C(=O)N[C@@H](Cc1ccccc1)C(=O)N[C@@]1(C)CCCC=CCCC[C@@](C)(C(=O)N[C@@H](CC(C)C)C(=O)N[C@@H](CC(C)C)C(=O)N[C@@H](CO)C(=O)NCCOCCOCCOCCC(=O)N[C@@H](CC(C)C)C(=O)N[C@@H](C)C(=O)N2C[C@H](O)C[C@H]2C(=O)N[C@@H](Cc2ccc(O)cc2)C(=O)N[C@@H](CCC(C)C)C(=O)N2CCC[C@H]2C(N)=O)NC(=O)[C@H](Cc2c[nH]c3ccccc23)NC(=O)[C@H](Cc2ccc(O)cc2)NC(=O)[C@H](CCC(=O)O)NC1=O)[C@@H](C)O [SPMI-HIF1-3] (Ac-TSF[S5]EYW[S5]LLS[PEG3]LA[Hyp]Y[hLeu]P-NH2; staple 4-8)	27%							
37%	10.8 µM	> 100 µM	CC(=O)N[C@H](C(=O)N[C@@H](CO)C(=O)N[C@@H](Cc1ccccc1)C(=O)N[C@]1(C)CCCCCCC=CCCC[C@@](C)(C(=O)NCCOCCOCCC(=O)N[C@@H](CC(C)C)C(=O)N[C@@H](C)C(=O)N2C[C@H](O)C[C@H]2C(=O)N[C@@H](Cc2ccc(O)cc2)C(=O)N[C@@H](CCC(C)C)C(=O)N2CCC[C@H]2C(N)=O)NC(=O)[C@H](CC(C)C)NC(=O)[C@H](CC(C)C)NC(=O)[C@H](C)NC(=O)[C@H](Cc2c[nH]c3ccccc23)NC(=O)[C@H](Cc2ccc(O)cc2)NC(=O)[C@H](CCC(=O)O)NC1=O)[C@@H](C)O [SPMI-HIF2-2] (Ac-TSF[R8]EYWALL[S5][PEG2]LA[Hyp]Y[hLeu]P-NH2; staple 4-11)	37%							
24%	15.2 µM	> 100 µM	CC(=O)N[C@H](C(=O)N[C@@H](CO)C(=O)N[C@@H](Cc1ccccc1)C(=O)N[C@]1(C)CCCCCCC=CCCC[C@@](C)(C(=O)NCCOCCOCCOCCC(=O)N[C@@H](CC(C)C)C(=O)N[C@@H](C)C(=O)N2C[C@H](O)C[C@H]2C(=O)N[C@@H](Cc2ccc(O)cc2)C(=O)N[C@@H](CCC(C)C)C(=O)N2CCC[C@H]2C(N)=O)NC(=O)[C@H](CC(C)C)NC(=O)[C@H](CC(C)C)NC(=O)[C@H](C)NC(=O)[C@H](Cc2c[nH]c3ccccc23)NC(=O)[C@H](Cc2ccc(O)cc2)NC(=O)[C@H](CCC(=O)O)NC1=O)[C@@H](C)O [SPMI-HIF2-3] (Ac-TSF[R8]EYWALL[S5][PEG3]LA[Hyp]Y[hLeu]P-NH2; staple 4-11)	24%							

Compound	α-helicity (%) [1]	IC50 (HCT116 p53^+/+ cells; 72 h)	IC50 (HCT116 p53^-/- cells; 72 h)	helicity (circular dichroism)	Cmax (Pharmacokinetic study; mean)	AUC(0-inf) (Pharmacokinetic study)	MRT (Pharmacokinetic study)	half-life (Pharmacokinetic study; read-out: half-life (t1/2) (converted))	Ki (^24-108MDMX)	IC50 (HCT116 p53^+/+ cells; CCK-8, 72 h incubation, absorbance 450 nm, read-out: IC50 (μM) HCT116 p53^+/+)	IC50 (HCT116 p53^-/- cells; CCK-8, 72 h incubation, absorbance 450 nm, read-out: IC50 (μM) HCT116 p53^-/-)
CC(=O)N[C@H](C(=O)N[C@@H](CO)C(=O)N[C@@H](Cc1ccccc1)C(=O)N[C@]1(C)CCCCCCC=CCCC[C@@](C)(C(N)=O)NC(=O)[C@H](CC(C)C)NC(=O)[C@H](CC(C)C)NC(=O)[C@H](C)NC(=O)[C@H](Cc2c[nH]c3ccccc23)NC(=O)[C@H](Cc2ccc(O)cc2)NC(=O)[C@H](CCC(=O)O)NC1=O)[C@@H](C)O [SPMI2]	5%				30000 ng/mL	78600 ng·h/mL	10.9 h	7.9 h	0.62 µM and 0.29 µM	28.4 µM	> 100 µM
